According to publication PMC8766875 (Nature biotechnology, 2021):

What was measured:
[1] = design: species or system swine (female Yorkshire); settings: in vivo
swine = experiment: Pharmacodynamic response in dosed swine; type: in vivo
[2] = cited from earlier work
[3] = In vivo pharmacokinetics of insulin and GLP-1 analog in swine; settings: removed from dataset
[4] = 0.24 mg, injection (intramuscular) and L-SOMA groups

In the case of `CNC[C@H](O)c1ccc(O)c(O)c1` [epinephrine], the “systemic uptake after endoscopic gavage (negative control)” value [1] is reported as “negligible uptake”, the blood glucose response (swine; [4]) is reported as “rapid rise” and the heart rate response (swine; [4]) is reported as “rapid rise in heart rate”.

For GLP-1, the “ability to traverse the stomach lining for systemic uptake” value ([2]; in vivo) is given as “severely limited ability” and the “bioavailability when using a permeation enhancer” value ([2]; not told) is given as “approximately 1%”.

With adalimumab the “systemic uptake after endoscopic gavage (negative control)” value [1] was “negligible uptake”.

For recombinant human insulin, the “plasma insulin level at t=0” value ([3]; one L-SOMA-dosed swine, possible sample contamination) was 41.6 pM, the peak plasma level ([3]; same single L-SOMA-dosed swine, at 45 minutes) was 136 pM and the plasma glucose response (swine; 4 IU, injection and L-SOMA groups) was “immediate hypoglycemic onset”.

In the case of semaglutide, the oral bioavailability ([2]; in vivo, po) is given as “approximately 1%”.
